Experimental data published in patent US8778938B2, “Hepatitis C virus inhibitors” (priority 2010, dated 2014).

Key:
HCV 1b genotype replicon = experiment: HCV replicon assay, qRT-PCR (HCV RNA detection), genotype 1b replicon EC50; assay type: cell-based; settings: Hepatitis C virus, read-out: 1b EC50
Source text: HCV replicon cell lines (kindly provided by R. Bartenschlager) isolated from colonies as described by Lohman et al. (Lohman et al. (1999) Science 285: 110-113, expressly incorporated by reference in its entirety) and used for all experiments. The HCV replicon has the nucleic acid sequence set forth in EMBL Accession No.: AJ242651, the coding sequence of which is from nucleotides 1801 to 8406.
The coding sequence of the published HCV replicon was synthesized and subsequently assembled in a modified plasmid pBR322 (Promega, Madison, Wis.) using standard molecular biology techniques. […]
EC50 values of single agent compounds were determined by HCV RNA detection using quantitative RT-PCR, according to the manufacturer's instructions, with a TAQMAN® One-Step RT-PCR Master Mix Reagents Kit (Cat #AB 4309169, Applied Biosystems) on an ABI Model 7500 thermocycler. EC50 values of combinations are similarly determined by HCV RNA detection using quantitative RT-PCR. The TAQMAN primers to use for detecting and quantifying HCV RNA obtained from Integrated DNA Technologies. HCV RNA is normalized to GAPDH RNA levels in drug-treated cells, which is detected and quantified using the Human GAPDH Endogenous Control Mix (Applied Biosystems, AB 4310884E). […] Chemical agent cytotoxicity is evaluated using an MTS assay according to the manufacturer's directions (Promega). […]

HCV 1a genotype replicon = experiment: HCV replicon assay, qRT-PCR (HCV RNA detection), genotype 1a replicon EC50; assay type: cell-based; settings: Hepatitis C virus, read-out: 1a EC50

In the case of COC(=O)N[C@H](C(=O)N1CCC[C@H]1c1nc(-c2ccc(-c3ccc(-c4c[nH]c([C@@H]5C[C@@]6(CCCO6)CN5C(=O)[C@@H](NC(=O)OC)C(C)C)n4)cc3)cc2)c[nH]1)C(C)C [Compound 83], the EC50 (HCV 1b genotype replicon) is reported as 0.019 nM.
For COC(=O)N[C@H](C(=O)N1CCC[C@H]1c1ncc(-c2ccc(-c3ccc(-c4cnc([C@@H]5C[C@H](C6CC6)CN5C(=O)[C@@H](NC(=O)OC)C(C)C)[nH]4)cc3)cc2)[nH]1)C(C)C [Compound A83], the EC50 (HCV 1a genotype replicon) was 0.07 nM.
COC(=O)N[C@H](C(=O)N1C[C@@H](C2CC2)C[C@H]1c1ncc(-c2ccc(-c3ccc(-c4cnc([C@@H]5C[C@H](C6CC6)CN5C(=O)[C@@H](NC(=O)OC)C(C)C)[nH]4)cc3)cc2)[nH]1)C(C)C [Compound A229] was tested, and the EC50 (HCV 1b genotype replicon) was 0.087 nM.
